Assays:
Assay type in all cases: in vivo
Abutilon theophrasti [1] = test: Herbicidal action post-emergence, greenhouse pot test
How it was run: (§1)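 Efficacy is a visual percentage, 0% like untreated and 100% dead, read about 3 weeks after treatment under optimal greenhouse growth. Treatment was a post-emergence spray of aqueous WP or EC preparations at 80 g/ha or lower with 0.5% additive.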

Amaranthus retroflexus [2] = test: as above
How it was run: as §1

Echinochloa crus-galli [3] = test: as above
How it was run: as §1

Lolium rigidum [4] = test: as above; settings: application rate 80 g/ha
How it was run: as §1

Matricaria inodora [5] = test: as above
How it was run: as §1

Pharbitis purpurea [6] = test: as above
How it was run: as §1

Polygonum convolvulus [7] = test: as above
How it was run: as §1

Setaria viridis [8] = test: as above
How it was run: as §1

Stellaria media [9] = test: as above; settings: application rate 20 g/ha
How it was run: as §1

Veronica persica [10] = test: as above
How it was run: as §1

Viola tricolor [11] = test: as above; settings: application rate 20 g/ha
How it was run: as §1

Oryza sativa = test: Crop compatibility post-emergence, greenhouse pot test; settings: application rate 20 g/ha
How it was run: (§2)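 Greenhouse post-emergence spray at one-leaf stage, 600 L/ha with 0.5% additive. Injury was assessed visually after about 3 weeks as % of untreated control.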

Triticum aestivum = test: as above; settings: application rate 20 g/ha
How it was run: as §2

Abutilon theophrasti [12] = test: Herbicidal action pre-emergence, greenhouse pot test
How it was run: (§3)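 Soil-applied pre-emergence treatment: aqueous suspension or emulsion of WP or EC formulation, 0.5% additive, water equivalent to 600 L/ha, dose of 320 g/ha or lower. Readout is visual percent efficacy after ~3 weeks, where 0% equals control plants.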

Alopecurus myosuroides [13] = test: as above; settings: application rate 320 g/ha
How it was run: as §3

Amaranthus retroflexus [14] = test: as above
How it was run: as §3

Avena fatua = test: as above; settings: application rate 320 g/ha
How it was run: as §3

Cyperus esculentus = test: as above; settings: application rate 320 g/ha
How it was run: as §3

Echinochloa crus-galli [15] = test: as above; settings: application rate 320 g/ha
How it was run: as §3

Hordeum murinum = test: as above; settings: application rate 320 g/ha
How it was run: as §3

Lolium rigidum [16] = test: as above; settings: application rate 320 g/ha
How it was run: as §3

Pharbitis purpurea [17] = test: as above
How it was run: as §3

Polygonum convolvulus [18] = test: as above
How it was run: as §3

Setaria viridis [19] = test: as above
How it was run: as §3

Stellaria media [20] = test: as above
How it was run: as §3

Veronica persica [21] = test: as above
How it was run: as §3

Viola tricolor [22] = test: as above
How it was run: as §3

Matricaria inodora [23] = test: as above
Alopecurus myosuroides [24] = test: Herbicidal action post-emergence, greenhouse pot test; settings: application rate 80 g/ha, scored visually after about 3 weeks vs untreated controls
How it was run: as §1

Zea mays = test: Crop compatibility post-emergence, greenhouse pot test; settings: application rate 20 g/ha
How it was run: as §2

## COC(=O)COC(=O)C(C)Sc1cc(-n2c(=O)cc(C(F)(F)F)n(C)c2=O)c(F)cc1Cl (stereo not drawn) [I.1-42]
Abutilon theophrasti [1]; application rate 20 g/ha
  Abutilon theophrasti (Efficacy in %): 100%
Amaranthus retroflexus [2]; application rate 20 g/ha
  Amaranthus retroflexus (Efficacy in %): 100%
Echinochloa crus-galli [3]; application rate 20 g/ha
  Echinochloa crus-galli (Efficacy in %): 100%
Lolium rigidum [4]
  Lolium rigidum (Efficacy in %): 90%
Matricaria inodora [5]; application rate 20 g/ha
  Matricaria inodora (Efficacy in %): 100%
Pharbitis purpurea [6]; application rate 20 g/ha
  Pharbitis purpurea (Efficacy in %): 100%
Polygonum convolvulus [7]; application rate 20 g/ha
  Polygonum convolvulus (Efficacy in %): 100%
Setaria viridis [8]; application rate 20 g/ha
  Setaria viridis (Efficacy in %): 100%
Stellaria media [9]
  Stellaria media (Efficacy in %): 100%
Veronica persica [10]; application rate 80 g/ha
  Veronica persica (Efficacy in %): 100%
Viola tricolor [11]
  Viola tricolor (Efficacy in %): 100%
Oryza sativa
  Oryza sativa (Efficacy in %): 10%
Triticum aestivum
  Triticum aestivum (Efficacy in %): 20%
Abutilon theophrasti [12]; application rate 80 g/ha
  Abutilon theophrasti (Efficacy in %): 100%
Alopecurus myosuroides [13]
  Alopecurus myosuroides (Efficacy in %): 90%
Amaranthus retroflexus [14]; application rate 20 g/ha
  Amaranthus retroflexus (Efficacy in %): 100%
Avena fatua
  Avena fatua (Efficacy in %): 90%
Cyperus esculentus
  Cyperus esculentus (Efficacy in %): 100%
Echinochloa crus-galli [15]
  Echinochloa crus-galli (Efficacy in %): 100%
Hordeum murinum
  Hordeum murinum (Efficacy in %): 100%
Lolium rigidum [16]
  Lolium rigidum (Efficacy in %): 100%
Pharbitis purpurea [17]; application rate 80 g/ha
  Pharbitis purpurea (Efficacy in %): 100%
Polygonum convolvulus [18]; application rate 80 g/ha
  Polygonum convolvulus (Efficacy in %): 100%
Setaria viridis [19]; application rate 80 g/ha
  Setaria viridis (Efficacy in %): 100%
Stellaria media [20]; application rate 80 g/ha
  Stellaria media (Efficacy in %): 100%
Veronica persica [21]; application rate 80 g/ha
  Veronica persica (Efficacy in %): 100%
Viola tricolor [22]; application rate 80 g/ha
  Viola tricolor (Efficacy in %): 100%
Matricaria inodora [23]; application rate 80 g/ha
  Matricaria inodora (Efficacy in %): 100%

## CCNC(=O)COC(=O)C(C)Sc1cc(-n2c(=O)cc(C(F)(F)F)n(C)c2=O)c(F)cc1Cl (stereo not drawn) [I.1-183]
Abutilon theophrasti [1]; application rate 80 g/ha
  Abutilon theophrasti (Efficacy in %): 100%
Alopecurus myosuroides [24]
  Alopecurus myosuroides (Efficacy in %): 80%
Amaranthus retroflexus [2]; application rate 80 g/ha
  Amaranthus retroflexus (Efficacy in %): 100%
Echinochloa crus-galli [3]; application rate 80 g/ha
  Echinochloa crus-galli (Efficacy in %): 100%
Lolium rigidum [4]
  Lolium rigidum (Efficacy in %): 100%
Matricaria inodora [5]; application rate 80 g/ha
  Matricaria inodora (Efficacy in %): 100%
Pharbitis purpurea [6]; application rate 80 g/ha
  Pharbitis purpurea (Efficacy in %): 100%
Polygonum convolvulus [7]; application rate 80 g/ha
  Polygonum convolvulus (Efficacy in %): 100%
Setaria viridis [8]; application rate 80 g/ha
  Setaria viridis (Efficacy in %): 100%
Stellaria media [9]
  Stellaria media (Efficacy in %): 100%
Veronica persica [10]; application rate 20 g/ha
  Veronica persica (Efficacy in %): 100%
Viola tricolor [11]
  Viola tricolor (Efficacy in %): 100%
Oryza sativa
  Oryza sativa (Efficacy in %): 20%
Zea mays
  Zea mays (Efficacy in %): 10%
Abutilon theophrasti [12]; application rate 320 g/ha
  Abutilon theophrasti (Efficacy in %): 100%
Alopecurus myosuroides [13]
  Alopecurus myosuroides (Efficacy in %): 90%
Amaranthus retroflexus [14]; application rate 80 g/ha
  Amaranthus retroflexus (Efficacy in %): 100%
Avena fatua
  Avena fatua (Efficacy in %): 90%
Cyperus esculentus
  Cyperus esculentus (Efficacy in %): 80%
Echinochloa crus-galli [15]
  Echinochloa crus-galli (Efficacy in %): 100%
Hordeum murinum
  Hordeum murinum (Efficacy in %): 90%
Lolium rigidum [16]
  Lolium rigidum (Efficacy in %): 90%
Pharbitis purpurea [17]; application rate 320 g/ha
  Pharbitis purpurea (Efficacy in %): 100%
Polygonum convolvulus [18]; application rate 320 g/ha
  Polygonum convolvulus (Efficacy in %): 100%
Setaria viridis [19]; application rate 320 g/ha
  Setaria viridis (Efficacy in %): 100%
Stellaria media [20]; application rate 320 g/ha
  Stellaria media (Efficacy in %): 100%
Veronica persica [21]; application rate 320 g/ha
  Veronica persica (Efficacy in %): 100%
Viola tricolor [22]; application rate 320 g/ha
  Viola tricolor (Efficacy in %): 100%
Matricaria inodora [23]; application rate 320 g/ha
  Matricaria inodora (Efficacy in %): 100%

Source: patent publication US11274083B2, “Substituted thiophenyl uracils, salts thereof and the use thereof as herbicidal agents” (Syngenta Crop Protection AG, priority 2017, dated 2022)
